For eleven compounds, IC50 results are on record in patent US9732063B2, “Kinase inhibitors” (RESPIVERT LIMITED, priority 2012, dated 2017).

In one assay the test system is d-U937 cells. The assay is described as follows: LPS-induced TNFα/IL-8 release in d-U937 cells. It counts as cell-based. As to conditions: Homo sapiens. The procedure:
Cells are pre-incubated with final concentrations of test compound for 2 hr and are then stimulated with 0.1 μg/mL of LPS (from E. coli: O111:B4, Sigma) for 4 hr. The supernatant is collected for determination of TNFα and IL-8 concentrations by sandwich ELISA (Duo-set, R&D systems). […] The relative 50% effective concentration (REC50) is determined from the resultant concentration-response curve. The inhibition of IL-8 production is calculated at each concentration of test compound by comparison with vehicle control.

A further assay concerns the target p38 MAPKα (Homo sapiens (Human), UniProt Q16539). Kind of assay: p38 MAPKα enzyme inhibition (Z-LYTE FRET, Method 2). It counts as biochemical. The procedure: (§1) The enzyme inhibitory activities of compounds disclosed herein are determined by FRET using synthetic peptides labelled with both donor and acceptor fluorophores (Z-LYTE, Invitrogen Ltd., Paisley, UK).
The inhibitory activities of test compounds against the p38 MAPKα isoform (MAPK14: Invitrogen), are evaluated indirectly by determining the level of activation/phosphorylation of the down-stream molecule, MAPKAP-K2. The p38 MAPKα protein (80 ng/mL, 2.5 μL) is mixed with the test compound (2.5 μL of either 4 μg/mL, 0.4 μg/mL, 0.04 μg/mL or 0.004 μg/mL) for 2 hr at RT. […] The mixture is incubated for 1 hr at RT. Development reagent (protease, 5 μL) is added for 1 hr prior to detection in a fluorescence microplate reader (Varioskan® Flash, ThermoFisher Scientific).
(§2) In all cases, the site-specific protease cleaves non-phosphorylated peptide only and eliminates the FRET signal. Phosphorylation levels of each reaction are calculated using the ratio of coumarin emission (donor) over fluorescein emission (acceptor), for which high ratios indicate high phosphorylation and low ratios indicate low phosphorylation levels.

The target of a further assay is Syk (Homo sapiens (Human), UniProt P43405). The assay is described as follows: Syk enzyme inhibition (Z-LYTE FRET). The class given is biochemical. The procedure:
as §1
(§3) The relevant enzyme (3000 ng/mL or 2000 ng/mL respectively, 2.5 μL) is incubated with the test compound (either 4 μg/mL, 0.4 μg/mL, 0.04 μg/mL, or 0.004 μg/mL, 2.5 μL each) for 2 hr at RT. The FRET peptides (8 μM, 2.5 μL), and appropriate ATP solutions (2.5 μL, 800 μM for c-Src, and 60 μM ATP for Syk) are then added to the enzymes/compound mixtures and incubated for 1 hr. Development reagent (protease, 5 μL) is added for 1 hr prior to detection in a fluorescence microplate reader (Varioskan® Flash, ThermoFisher Scientific).
as §2

For assay [1], the system named is PBMCs. The assay is described as follows: IL-2 and IFN gamma release in CD3/CD28 stimulated PBMC cells. It counts as cell-based. The settings on record: Homo sapiens. In outline:
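They were cultured with compound for 3 days. IL-2 and IFN-γ in supernatants were quantified by sandwich ELISA, and IC50 was derived from the dose-response curve.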

Another assay concerns the target GSK3α (Homo sapiens (Human), UniProt P49840). Kind of assay: GSK 3α enzyme inhibition (Z-LYTE FRET, Method 2). The class given is biochemical. In outline: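 Z-LYTE FRET: GSK3α preincubated with compound 2 h at RT, then FRET peptide and ATP added (stocks 8 μM and 40 μM) for 1 h, followed by 1 h protease development. Compound stocks 4–0.004 μg/mL; phosphorylation from coumarin/fluorescein emission ratio.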

In assay [2] the test system is PBMCs. Kind of assay: LPS-induced TNFα/IL-8 release in PBMC cells. It counts as cell-based. The settings on record: Homo sapiens, read-out: IC50 Values for Inhibition of Cytokine Release PBMCs IL-8. The method in brief: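 TNFα and IL-8 in supernatants were measured by sandwich ELISA after 24 h of 1 ng/mL LPS (E. coli O111:B4) at 37 °C, 5% CO2. Test compounds were added 2 h before LPS to PBMCs from healthy subjects, separated on a density gradient.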

The next assay has as its target c-Src (Homo sapiens (Human), UniProt P12931). The assay is described as follows: c-Src enzyme inhibition (Z-LYTE FRET). The class given is biochemical. The procedure: as §1, §3, §2
In another assay the test system is HT29 cells. The assay is described as follows: IL-1β-induced IL-8 release in HT29 cells. It counts as cell-based. The settings on record: Homo sapiens, HT-29, read-out: IC50 Values for Inhibition of Cytokine Release HT29 cells IL-8. The procedure:
HT29 cells, a human colon adenocarcinoma cell line, are plated in a 96 well plate (24 hrs) and pre-treated with compounds at the desired concentration for 2 hours before addition of 5 ng/mL of IL-1β (Abcam) for 24 hours. Supernatants are harvested for IL-8 quantification by Sandwich ELISA (Duo-set, R&D System). The IC50 is determined from the dose response curve.

[3] abbreviates: dU937, read-out: IC50 Values for Inhibition of Cytokine Release dU937 cells IL-8.
Setting [4] is: dU937, read-out: IC50 Values for Inhibition of Cytokine Release dU937 cells TNFα.
[5] abbreviates: read-out: IC50 Values for Inhibition of Cytokine Release PBMCs IFNγ.
Where [6] appears, read: read-out: IC50 Values for Inhibition of Cytokine Release PBMCs IL-2.

pIC50: −log10 of the molar value. Read-outs that look alike come from different tables or passages of the source.

c-Src, sequence (P12931 whole entry, looked up): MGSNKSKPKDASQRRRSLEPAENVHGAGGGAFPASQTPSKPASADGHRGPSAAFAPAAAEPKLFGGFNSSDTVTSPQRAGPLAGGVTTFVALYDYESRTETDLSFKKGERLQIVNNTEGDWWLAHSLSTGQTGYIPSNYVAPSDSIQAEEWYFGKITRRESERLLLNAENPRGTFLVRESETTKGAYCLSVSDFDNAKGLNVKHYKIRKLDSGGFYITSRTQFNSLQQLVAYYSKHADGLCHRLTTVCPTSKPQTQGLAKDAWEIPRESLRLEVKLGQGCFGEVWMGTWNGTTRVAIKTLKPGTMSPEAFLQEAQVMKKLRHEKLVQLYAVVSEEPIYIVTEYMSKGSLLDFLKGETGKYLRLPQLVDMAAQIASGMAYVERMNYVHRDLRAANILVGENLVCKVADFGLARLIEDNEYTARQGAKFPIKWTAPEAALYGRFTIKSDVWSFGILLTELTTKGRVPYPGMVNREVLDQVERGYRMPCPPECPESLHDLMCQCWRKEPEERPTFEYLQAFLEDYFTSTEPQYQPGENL
GSK3α, sequence (P49840 whole entry): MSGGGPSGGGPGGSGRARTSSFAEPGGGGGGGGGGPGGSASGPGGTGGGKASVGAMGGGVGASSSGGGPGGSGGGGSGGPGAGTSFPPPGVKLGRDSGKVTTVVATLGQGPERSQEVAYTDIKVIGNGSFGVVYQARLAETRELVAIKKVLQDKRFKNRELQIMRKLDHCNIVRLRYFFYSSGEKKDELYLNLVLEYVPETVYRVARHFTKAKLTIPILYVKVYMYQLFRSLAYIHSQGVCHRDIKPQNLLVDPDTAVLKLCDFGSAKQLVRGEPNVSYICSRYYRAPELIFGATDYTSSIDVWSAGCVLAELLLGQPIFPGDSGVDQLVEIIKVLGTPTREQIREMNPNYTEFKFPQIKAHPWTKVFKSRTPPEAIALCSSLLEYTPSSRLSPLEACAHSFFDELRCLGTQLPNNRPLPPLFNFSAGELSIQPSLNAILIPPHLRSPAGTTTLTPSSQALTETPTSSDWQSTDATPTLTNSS
p38 MAPKα, sequence (Q16539 whole entry, canonical isoform): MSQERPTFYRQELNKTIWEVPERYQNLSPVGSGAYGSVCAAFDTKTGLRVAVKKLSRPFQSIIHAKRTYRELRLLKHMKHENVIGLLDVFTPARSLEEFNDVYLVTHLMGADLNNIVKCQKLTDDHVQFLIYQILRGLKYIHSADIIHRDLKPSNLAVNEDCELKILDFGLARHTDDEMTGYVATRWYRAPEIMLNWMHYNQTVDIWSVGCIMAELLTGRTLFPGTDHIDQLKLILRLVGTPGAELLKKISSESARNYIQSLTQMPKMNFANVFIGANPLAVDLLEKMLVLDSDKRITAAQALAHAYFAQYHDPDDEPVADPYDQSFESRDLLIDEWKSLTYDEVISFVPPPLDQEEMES

By pIC50 is commonly meant the IC50 on a negative log10 scale, so that one unit is a factor of ten. `COc1ccc(-n2nc(C(C)(C)C)cc2NC(=O)Nc2ccc(Oc3ccnc(Nc4cc(OC)cc(S(=O)(=O)C5CC5)c4)n3)c3ccccc23)cc1` [Example 70, 1-(3-(tert-Butyl)-1-(4-methoxyphenyl)-1H-pyrazol-5-yl)-3-(4-((2-((3-(cyclopropylsulfonyl)-5-methoxyphenyl)amino)pyrimidin-4-yl)oxy)naphthalen-1-yl)urea]: the pIC50 is 8.72 in the assay with d-U937 cells (setting [3]); 8.96 in the assay on d-U937 cells (setting [4]); 6.52 against p38 MAPKα; 7.21 on Syk; 8.85 with PBMCs [1] (setting [5]); 7.13 in the assay with PBMCs [1] (setting [6]). In addition, the pIC50 is 5.47 at GSK3α and 9.05 in the assay with PBMCs [2].
For `COc1cc(Nc2nccc(Oc3ccc(NC(=O)Nc4cc(C(C)C)nn4-c4ccc(C)cc4)c4ccccc34)n2)cc(OCCOCCOCCO)c1` [Example 20, 1-(4-((2-((3-(2-(2-(2-Hydroxyethoxy)ethoxy)ethoxy)-5-methoxyphenyl)amino)pyrimidin-4-yl)oxy)naphthalen-1-yl)-3-(3-isopropyl-1-(P-tolyl)-1H-pyrazol-5-yl)urea], the pIC50 in the assay on d-U937 cells (setting [4]) is 8.80; on p38 MAPKα, 7.59; against Syk, 8.10; at c-Src, 8.10; with PBMCs [1] (setting [6]), 7.09; with PBMCs [2] it was 8.82.
In the case of `Cc1ccc(-n2nc(C(C)C)cc2NC(=O)Nc2ccc(Oc3ccnc(Nc4cccc(N=S(C)(C)=O)c4)n3)c3ccccc23)cc1` [Example 14], the figures for the pIC50 in the assay with HT29 cells and in the assay on PBMCs [2] were 8.10 and 8.62, respectively.
As for `COc1cc(Nc2nccc(Oc3ccc(NC(=O)Nc4cc(C(C)(C)C)nn4-c4ccc(OC)nc4)c4ccccc34)n2)cc(S(=O)(=O)C2CC2)c1` [Example 61, 1-(3-(tert-Butyl)-1-(6-methoxypyridin-3-yl)-1H-pyrazol-5-yl)-3-(4-((2-((3-(cyclopropylsulfonyl)-5-methoxyphenyl)amino)pyrimidin-4-yl)oxy)naphthalen-1-yl)urea], the pIC50 is 6.52 against p38 MAPKα; 7.14 on c-Src; 8.72 in the assay with PBMCs [1] (setting [5]); 7.37 with PBMCs [1] (setting [6]); 5.42 at GSK3α; 8.32 with HT29 cells. The pIC50 in the assay on PBMCs [2] is 8.70.
As for `COc1cc(Nc2nccc(Oc3ccc(NC(=O)Nc4cc(C(C)(C)C)nn4-c4ccc(C)cc4)c(Cl)c3Cl)n2)cc(OCCOCCOCCO)c1` [Example 71, 1-(3-(tert-Butyl)-1-(p-tolyl)-1H-pyrazol-5-yl)-3-(2,3-dichloro-4-((2-((3-(2-(2-(2-hydroxyethoxyl)ethoxy)ethoxy)-5-methoxyphenyl)amino)pyrimidin-4-yl)oxy)phenyl)urea], the negative logarithm of the IC50 (pIC50) in the assay on d-U937 cells (setting [3]) is 8.89; in the assay with d-U937 cells (setting [4]) it was 9.00; at p38 MAPKα, 6.13; against Syk, 7.64; against c-Src, 7.72; in the assay with PBMCs [1] (setting [5]) it was 8.96. Also, the pIC50 with PBMCs [1] (setting [6]) is 7.22; at GSK3α, 5.11; with PBMCs [2], 8.74.
On to `COc1cc(Nc2nccc(Oc3ccc(NC(=O)Nc4cc(C(C)C)nn4-c4ccc(C)cc4)c(Cl)c3Cl)n2)cc(OCCN2CCOCC2)c1` [Example 21, 1-(2,3-Dichloro-4-((2-((3-methoxy-5-(2-morpholinoethoxyl)phenyl)amino)pyrimidin-4-yl)-oxy)phenyl)-3-(3-isopropyl-1-(p-tolyl)-1H-pyrazol-5-yl)urea], for which the pIC50 in the assay with d-U937 cells (setting [3]) is 8.80; in the assay with d-U937 cells (setting [4]) it was 8.96; on p38 MAPKα, 6.47; on Syk, 7.14; against c-Src, 7.21; in the assay with PBMCs [1] (setting [5]) it was 8.72. For the same compound, the negative-log IC50 (pIC50) with PBMCs [1] (setting [6]) was 7.97; in the assay on PBMCs [2], 8.80.
As for `COc1cc(Nc2nccc(Oc3ccc(NC(=O)Nc4cc(C(C)(C)C)nn4-c4ccc(C)cc4)c4ccccc34)n2)cc(OCCN2CCOCC2)c1` [Example 45, 1-(3-(tert-Butyl)-1-(P-tolyl)-1H-pyrazol-5-yl)-3-(4-((2-((3-methoxy-5-(2-morpholinoethoxy)-phenyl)amino)pyrimidin-4-yl)oxy)naphthalen-1-yl)urea], the pIC50 is 6.84 against p38 MAPKα; 7.82 on Syk; 7.92 against c-Src; 8.66 with PBMCs [1] (setting [5]); 7.13 with PBMCs [1] (setting [6]); 5.83 against GSK3α. The pIC50 in the assay on PBMCs [2] is 8.49.
In the case of `COCCOCCOCCOCCOCCOc1cc(Nc2nccc(Oc3ccc(NC(=O)Nc4cc(C(C)C)nn4-c4ccc(C)cc4)c4ccccc34)n2)cc(OC)c1` [Example 30, 1-(4-((2-((3-(2,5,8,11,14-Pentaoxahexadecan-16-yloxy)-5-methoxyphenyl)amino)-pyrimidin-4-yl)oxy)naphthalen-1-yl)-3-(3-isopropyl-1-(p-tolyl)-1H-pyrazol-5-yl)urea], the pIC50 on p38 MAPKα was 7.49; on Syk it was 7.92; on c-Src, 8.40; in the assay on PBMCs [1] (setting [5]), 7.82; in the assay on PBMCs [1] (setting [6]) it was 7.56; at GSK3α, 5.14. The pIC50 with PBMCs [2] is 8.68.
Regarding `COc1cc(Nc2nccc(Oc3ccc(NC(=O)Nc4cc(C(C)(C)C)nn4-c4ccc(C)cc4)c4ccccc34)n2)cc(SCCCN2CCOCC2)c1` [Example 42, 1-(3-(tert-Butyl)-1-(p-tolyl)-1H-pyrazol-5-yl)-3-(4-((2-((3-methoxy-5-((3-morpholinopropyl)-thio)phenyl)amino)pyrimidin-4-yl)oxy)naphthalen-1-yl)urea], the pIC50 on p38 MAPKα was 6.54; at Syk, 7.29; against c-Src it was 7.55; in the assay with PBMCs [1] (setting [5]), 9.00; with PBMCs [1] (setting [6]), 7.23; against GSK3α, 5.71. Moreover, the negative-log IC50 (pIC50) in the assay on PBMCs [2] is 8.44.
On to `COc1cc(Nc2nccc(Oc3ccc(NC(=O)Nc4cc(C(C)(C)C)nn4-c4ccc(C)cc4)c4ccccc34)n2)cc(OCCOCCOCCO)c1` [Example 62, 1-(3-(tert-Butyl)-1-(P-tolyl)-1H-pyrazol-5-yl)-3-(4-((2-((3-(2-(2-(2-hydroxyethoxy)ethoxy)ethoxy)-5-methoxyphenyl)amino)pyrimidin-4-yl)oxy)naphthalen-1-yl)urea], for which the pIC50 against p38 MAPKα was 7.02; against Syk, 8.22; against c-Src it was 8.40; in the assay on PBMCs [1] (setting [5]), 8.68; in the assay on PBMCs [1] (setting [6]) it was 7.28; in the assay on HT29 cells, 8.60. The pIC50 with PBMCs [2] was 8.82.
In the case of `COc1cc(Nc2nccc(Oc3ccc(NC(=O)Nc4cc(C(C)(C)C)nn4-c4ccc(C)cc4)c4ccccc34)n2)cc(SCCO)c1` [Example 55, 1-(3-(tert-Butyl)-1-(p-tolyl)-1H-pyrazol-5-yl)-3-(4-((2-((3-((2-hydroxyethyl)thio)-5-methoxyphenyl)amino)pyrimidin-4-yl)oxy)naphthalen-1-yl)urea], the pIC50 at p38 MAPKα is 6.70; against Syk, 7.38; in the assay on PBMCs [1] (setting [5]) it was 8.70; in the assay on PBMCs [1] (setting [6]) it was 7.43; against GSK3α, 5.91; with HT29 cells, 8.62. Also, the pIC50 with PBMCs [2] was 8.70.
